Measured values: patent publication US20210387973A1, “SUBSTITUTED HETEROCYCLIC COMPOUNDS AND THEIR USE AS RETINOID-RELATED ORPHAN RECEPTOR (ROR) GAMMA-T INHIBITORS” (Technische Universiteit Eindhoven, priority 2019, published 2021)
Read-outs that look alike come from different tables or passages of the source.

Assays:
[1] = target: T1, His6-RORγt ligand binding domain (Homo sapiens, UniProt P51449); assay: TR-FRET coactivator recruitment assay; type: biochemical; conditions: for Dependence of coactivator recruitment inhibition on cholesterol: fixed concentrations of orthosteric agonist cholesterol
T1 sequence (P51449 269-508 limits assumed): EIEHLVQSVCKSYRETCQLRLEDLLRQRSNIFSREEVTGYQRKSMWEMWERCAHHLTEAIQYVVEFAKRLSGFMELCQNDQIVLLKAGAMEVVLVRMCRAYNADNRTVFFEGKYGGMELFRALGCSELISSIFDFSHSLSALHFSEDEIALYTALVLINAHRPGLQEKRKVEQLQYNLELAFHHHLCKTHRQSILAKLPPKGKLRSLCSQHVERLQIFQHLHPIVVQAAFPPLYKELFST
Method: In the present application the IC50 is determined according to a biochemical TR-FRET assay. […] A terbium labelled anti-His antibody (CisBio Bioassays, 61HISTLA) and D2-labelled streptavidin (CisBio Bioassays, 610SADLA) are used at the concentrations recommended by the supplier. Compounds (dissolved in DMSO) are titrated using a 2× dilution series in Corning white low volume, low binding, 384-well plates at a final volume of 10 μL The final DMSO concentration being 2% v/v throughout. […] The data is analyzed with Origin Software. The dose-response curve was fitted represented by:
Where y is the FRET ratio, A1 is the bottom asymptote, A2 is the top asymptote, p is the Hills slope and x is the ligand concentration.
The coactivator recruitment TR-FRET assay was performed in the presence of increasing fixed concentrations of cholesterol, a well characterized orthosteric agonist.
A terbium labelled anti-His antibody (CisBio Bioassays, 61HISTLA) and D2-labelled streptavidin (CisBio Bioassays, 610SADLA) were used at the concentrations recommended by the supplier. Compounds (dissolved in Dimethyl sulfoxide—DMSO) were titrated using a 2× dilution series from a highest final concentration of […] such that the final DMSO concentration was 2% v/v throughout.

[2] = target: T2, His6-RORγt (Homo sapiens, UniProt P51449); assay: Allosteric ligand displacement assay (AlexaFluor 647 probe, FRET); type: binding
T2 sequence (P51449 1-497 isoform P51449-2): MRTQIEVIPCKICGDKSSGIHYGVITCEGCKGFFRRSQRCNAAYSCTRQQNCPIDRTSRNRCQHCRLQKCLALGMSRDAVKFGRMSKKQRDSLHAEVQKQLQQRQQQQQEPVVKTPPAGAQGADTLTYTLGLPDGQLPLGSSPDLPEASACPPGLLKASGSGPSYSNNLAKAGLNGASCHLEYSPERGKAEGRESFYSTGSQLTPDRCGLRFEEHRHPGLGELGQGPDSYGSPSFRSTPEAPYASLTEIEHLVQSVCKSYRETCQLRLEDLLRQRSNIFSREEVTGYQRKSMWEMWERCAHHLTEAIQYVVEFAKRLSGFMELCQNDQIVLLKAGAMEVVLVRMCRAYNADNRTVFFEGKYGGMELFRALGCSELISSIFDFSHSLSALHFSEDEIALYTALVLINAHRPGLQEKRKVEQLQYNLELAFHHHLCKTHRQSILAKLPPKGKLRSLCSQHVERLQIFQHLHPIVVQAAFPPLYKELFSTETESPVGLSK
From the text: To provide further evidence for allosteric ligand binding we used an orthogonal assay to directly probe for allosteric ligand binding (as opposed to measuring the indirect effects on coactivator recruitment).

[3] = Table 2, cholesterol concentration of 0 μM, read-out: IC50

O=C(O)c1ccc(/N=C/c2c(-c3c(Cl)cccc3C(F)(F)F)noc2-c2cc[nH]c2)cc1 [AS89]
IC50 [1, 3]: 46.6 µM

O=C(O)c1ccc(NCc2c(-c3c(Cl)cccc3C(F)(F)F)noc2-c2cc[nH]c2)cc1 [Compound 1]
Hill slope ([1]; 0 μM Cholesterol): −0.45 ± 0.02 | Hill slope ([1]; 0.1 μM Cholesterol): −0.74 ± 0.03 | Hill slope ([1]; 1.0 μM Cholesterol): −0.86 ± 0.03 | Dependence of coactivator recruitment inhibition on cholesterol [1]: independent of increasing concentrations of cholesterol

C[C@H]1O[C@@H](O[C@H]2[C@@H](O)C[C@H](O[C@H]3[C@@H](O)C[C@H](O[C@H]4CC[C@@]5(C)[C@H](CC[C@@H]6[C@@H]5C[C@@H](O)[C@]5(C)[C@@H](C7=CC(=O)OC7)CC[C@]65O)C4)O[C@@H]3C)O[C@@H]2C)C[C@H](O)[C@@H]1O [Compound C, reference compound]
Hill slope ([1]; 0 μM Cholesterol): −0.53 ± 0.03 | IC50 ([1]; 0 μM Cholesterol, read-out: IC50): 0.774 ± 0.0816 µM | Hill slope ([1]; 0.1 μM Cholesterol): −0.54 ± 0.02 | IC50 ([1]; 0.1 μM Cholesterol, read-out: IC50): 5.47 ± 0.456 µM | Hill slope ([1]; 1.0 μM Cholesterol): −0.87 ± 0.04 | IC50 ([1]; 1.0 μM Cholesterol, read-out: IC50): 32.4 ± 1.69 µM | IC50 ([1]; as listed beside probe competition (0 μM cholesterol values), read-out: Coactivator Recruitment IC50): 0.774 ± 0.0816 µM | Dependence of coactivator recruitment inhibition on cholesterol [1]: cholesterol-dependent activity profile | IC50 ([2]; displacement of Alexa Fluor 647 probe, read-out: AlexaFluor Probe Competition IC50): > 5 µM | IC50 ([2]; read-out: IC50 for displacement of the Alexa Fluor 647 probe): > 50 µM

O=C(O)c1ccc(-c2c(-c3c(Cl)cccc3C(F)(F)F)noc2-c2ccccc2)cc1 [GV020]
IC50 [1, 3]: 8.2 µM

O=C(O)c1ccc(S(=O)(=O)Nc2c(-c3c(Cl)cccc3C(F)(F)F)noc2-c2ccccc2)cc1 [GV031]
IC50 [1, 3]: 62.6 µM

O=C(O)c1ccc(CNc2c(-c3c(Cl)cccc3C(F)(F)F)noc2-c2ccccc2)cc1 [GV032]
IC50 [1, 3]: 30.9 µM

O=C(O)c1ccc(NCc2c(-c3c(Cl)cccc3C(F)(F)F)noc2-c2ccccc2)cc1 [GV068]
IC50 [1, 3]: 9.6 µM

O=C(O)c1ccc(NC(=O)c2c(-c3c(Cl)cccc3C(F)(F)F)noc2-c2ccccc2)cc1 [RD032]
IC50 [1, 3]: 53.5 µM

O=C(O)c1cccc(NC(=O)c2c(-c3c(Cl)cccc3C(F)(F)F)noc2-c2ccccc2)c1 [RD061]
IC50 [1, 3]: 73.9 µM

O=C(O)c1ccc(CNC(=O)c2c(-c3c(Cl)cccc3C(F)(F)F)noc2-c2ccccc2)cc1 [RD065]
IC50 [1, 3]: 8.8 µM

O=C(O)c1ccc(NC(=O)c2c(-c3c(Cl)cccc3C(F)(F)F)noc2-c2ccccc2)cc1F [RD082]
IC50 [1, 3]: 91.1 µM

O=C(O)c1ccc(NCc2c(-c3c(Cl)cccc3C(F)(F)F)noc2-c2ccco2)cc1 [RD149]
IC50 [1, 3]: 1.1 µM

O=C(O)c1ccc(NCc2c(-c3c(Cl)cccc3C(F)(F)F)noc2-c2cccs2)cc1 [RD329]
IC50 [1, 3]: 1.8 µM

O=C(O)c1ccc(NCc2c(-c3c(Cl)cccc3C(F)(F)F)noc2-c2cccc(O)c2)cc1 [RD369]
IC50 [1, 3]: 6.6 µM
